Measured values as given in patent publication US20220402916A1, “SMALL MOLECULE INHIBITORS OF KRAS G12C MUTANT” (Merck Sharp & Dohme Corp., priority 2019, published 2022).

Biological target: T1, Biotinylated KRAS G12C protein (Homo sapiens, UniProt P01116, C118S/C51S/C80L/G12C)
T1 construct: 183 amino acids; biotin on K10
Test: SOS-catalyzed nucleotide exchange assay
Type: biochemical
Settings: 10,000 nM; 60 minutes of preincubation prior to addition of SOS
Procedure: Compounds are added to this complex, and then after 60 minute incubation time the mixture is treated with recombinant SOS protein and unlabeled GTP. Small molecule inhibitors stabilize the Bodipy-GDP complex whereas the untreated protein rapidly exchanges Bodipy-GDP for unlabeled GTP resulting in reduced TR-FRET signal. […] This mixture is then further diluted to 90 nM in an assay buffer (20 mM HEPES, 150 mM sodium chloride, 10 mM magnesium chloride, and 0.005% Tween) containing 15 nM of Terbium-Streptavidin (Invitrogen, catalog #PV3577) and 900 nM of Bodipy-GDP and incubated at room temperature for six hours. […] Each test compound (10 mM stock in DMSO) is diluted in DMSO to make a 10-point, 3-fold dilution series in a 384-well low dead volume microplate (Labcyte, catalog #LP-0200). Once titrations are made, 10 nL of the diluted compounds is acoustically dispensed into a 384-well assay plate (Corning, catalog #3820) using an Echo 550 (Labcyte). […] Each well then receives 3 μL of 240 nM recombinant human SOS protein and 9 mM GTP (Sigma, G8877) in assay buffer and is incubated at room temperature for 60 minutes. The time-resolved fluorescence resonance energy transfer signal for the assay plate is measured on an Envision (PerkinElmer) plate reader: Excitation filter=340 nm; emission1=495 nm; emission2=520 nm; dichroic mirror=D400/D505; delay time=100 μs. The signal of each well is determined as the ratio of the emission at 520 nm to that at 495 nm. […] The apparent effect as a function of compound concentration is fit to a four parameter logistic equation.

T1 sequence (P01116 with tags, fused parts or gaps isoform P01116-2 G12C/C51S/C80L/C118S): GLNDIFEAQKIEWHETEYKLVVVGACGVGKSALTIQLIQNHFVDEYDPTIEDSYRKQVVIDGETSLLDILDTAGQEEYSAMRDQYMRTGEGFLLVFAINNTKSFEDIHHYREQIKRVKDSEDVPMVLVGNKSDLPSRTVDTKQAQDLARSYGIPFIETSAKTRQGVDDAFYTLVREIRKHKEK

| inhibition at 10 µM [%] | Compound |
| --- | --- |
| 38 | C=CC(=O)N1C[C@H](C)N(c2cc(C(=O)NCCN(C)C)nc3c2CCN(c2cccc4cccc(C)c24)C3)C[C@H]1C [Compound 59, 4-((2S,5R)-4-acryloyl-2,5-dimethylpiperazin-1-yl)-N-(2-(dimethylamino)ethyl)-7-(8-methylnaphthalen-1-yl)-5,6,7,8-tetrahydro-1,7-naphthyridine-2-carboxamide] |
| 33 | C=CC(=O)N1CCN(c2cc(C(=O)N3CCC[C@@H]3CN3CCC(=O)N3)nc3c2CCN(c2cccc4cccc(C)c24)C3)CC1 [Compound 43, (R)-1-((1-(4-(4-acryloylpiperazin-1-yl)-7-(8-methylnaphthalen-1-yl)-5,6,7,8-tetrahydro-1,7-naphthyridine-2-carbonyl)pyrrolidin-2-yl)methyl)pyrazolidin-3-one] |

Same assay, conditions: apparent potency; preincubation time of 60 minutes prior to addition of SOS

| IC50 [nM] | Compound |
| --- | --- |
| 5500 | C=CC(=O)N1CCN(c2cc(C(=O)NC3CCCN(C)C3)nc3c2CCN(c2cccc4cccc(C)c24)C3)CC1 (racemic) [Compound 52, rac-4-(4-acryloylpiperazin-1-yl)-7-(8-methylnaphthalen-1-yl)-N-(1-methylpiperidin-3-yl)-5,6,7,8-tetrahydro-1,7-naphthyridine-2-carboxamide] |
| 614 | C=CC(=O)N1CCN(c2cc(C(=O)N[C@@H](C)CN(C)C)nc3c2CCN(c2cccc4cccc(C)c24)C3)CC1 [Compound 14, (S)-4-(4-acryloylpiperazin-1-yl)-N-(1-(dimethylamino)propan-2-yl)-7-(8-methylnaphthalen-1-yl)-5,6,7,8-tetrahydro-1,7-naphthyridine-2-carboxamide] |
| 3540 | C=CC(=O)N1CCN(c2cc(C(=O)NC3CCCC(N(C)C)C3)nc3c2CCN(c2cccc4cccc(C)c24)C3)CC1 (racemic) [Compound 40, rac-(cis,trans)-4-(4-acryloylpiperazin-1-yl)-N-(3-(dimethylamino)cyclohexyl)-7-(8-methylnaphthalen-1-yl)-5,6,7,8-tetrahydro-1,7-naphthyridine-2-carboxamide] |
| 7320 | C=CC(=O)N1CCN(c2cc(C(=O)N[C@H]3COC[C@H]3N)nc3c2CCN(c2cccc4cccc(C)c24)C3)CC1 (racemic) [Compound 28, rac-4-(4-acryloylpiperazin-1-yl)-N-(cis-4-aminotetrahydrofuran-3-yl)-7-(8-methylnaphthalen-1-yl)-5,6,7,8-tetrahydro-1,7-naphthyridine-2-carboxamide] |
| 3180 | C=CC(=O)N1CCN(c2cc(C(=O)NC(C)CCN(C)C)nc3c2CCN(c2cccc4cccc(C)c24)C3)CC1 (racemic) [Compound 21, rac-4-(4-acryloylpiperazin-1-yl)-N-(4-(dimethylamino)butan-2-yl)-7-(8-methylnaphthalen-1-yl)-5,6,7,8-tetrahydro-1,7-naphthyridine-2-carboxamide] |
| 9150 | C=CC(=O)N1CCN(c2cc(C(=O)NC3CCN(C)CC3)nc3c2CCN(c2cccc4cccc(C)c24)C3)CC1 [Compound 54, 4-(4-acryloylpiperazin-1-yl)-7-(8-methylnaphthalen-1-yl)-N-(1-methylpiperidin-4-yl)-5,6,7,8-tetrahydro-1,7-naphthyridine-2-carboxamide] |
| 5360 | C=CC(=O)N1CCN(c2cc(C(=O)NC3CCCCN(C)C3)nc3c2CCN(c2cccc4cccc(C)c24)C3)CC1 (racemic) [Compound 53, rac-4-(4-acryloylpiperazin-1-yl)-N-(1-methylazepan-3-yl)-7-(8-methylnaphthalen-1-yl)-5,6,7,8-tetrahydro-1,7-naphthyridine-2-carboxamide] |
| 259 | C=CC(=O)N1CCN(c2cc(C(=O)N[C@@H]3CCC[C@H]3N(C)C)nc3c2CCN(c2cccc4cccc(C)c24)C3)CC1 (racemic) [Compound 29, rac-4-(4-acryloylpiperazin-1-yl)-N-(trans-2-(dimethylamino)cyclopentyl)-7-(8-methylnaphthalen-1-yl)-5,6,7,8-tetrahydro-1,7-naphthyridine-2-carboxamide] |
| 4900 | C=CC(=O)N1CCN(c2cc(C(=O)N[C@H]3CCCC[C@@H]3N)nc3c2CCN(c2cccc4cccc(C)c24)C3)CC1 [Compound 30, 4-(4-acryloylpiperazin-1-yl)-N-((1S,2S)-2-aminocyclohexyl)-7-(8-methylnaphthalen-1-yl)-5,6,7,8-tetrahydro-1,7-naphthyridine-2-carboxamide] |
| 826 | C=CC(=O)N1CCN(c2cc(C(=O)NCCN(C)C)nc3c2CCN(c2cccc4cccc(C)c24)C3)CC1 [Compound 13, 4-(4-acryloylpiperazin-1-yl)-N-(2-(dimethylamino)ethyl)-7-(8-methylnaphthalen-1-yl)-5,6,7,8-tetrahydro-1,7-naphthyridine-2-carboxamide] |
| 4770 | C=CC(=O)N1CCN(c2cc(C(=O)N[C@@H]3C[C@@H]3N)nc3c2CCN(c2cccc4cccc(C)c24)C3)CC1 (racemic) [Compound 38, rac-4-(4-acryloylpiperazin-1-yl)-N-(cis-2-aminocyclopropyl)-7-(8-methylnaphthalen-1-yl)-5,6,7,8-tetrahydro-1,7-naphthyridine-2-carboxamide] |
| 1520 | C=CC(=O)N1CCN(c2cc(C(=O)N[C@H]3COC[C@@H]3N)nc3c2CCN(c2cccc4cccc(C)c24)C3)CC1 (racemic) [Compound 36, rac-4-(4-acryloylpiperazin-1-yl)-N-(trans-4-aminotetrahydrofuran-3-yl)-7-(8-methylnaphthalen-1-yl)-5,6,7,8-tetrahydro-1,7-naphthyridine-2-carboxamide] |
| 3570 | C=CC(=O)N1CCN(c2cc(C(=O)N[C@H]3CCC[C@@H]3N3CCOCC3)nc3c2CCN(c2cccc4cccc(C)c24)C3)CC1 (racemic) [Compound 34, rac-4-(4-acryloylpiperazin-1-yl)-7-(8-methylnaphthalen-1-yl)-N-(trans-2-morpholinocyclopentyl)-5,6,7,8-tetrahydro-1,7-naphthyridine-2-carboxamide] |

The next lines start with the compound.

| Compound | IC50 [nM] |
| --- | --- |
| C=CC(=O)N1CCN(c2cc(C(=O)N3CCCC3CN3CCCCCC3)nc3c2CCN(c2cccc4cccc(C)c24)C3)CC1 (racemic) [Compound 45, rac-1-(4-(2-(2-(azepan-1-ylmethyl)pyrrolidine-1-carbonyl)-7-(8-methylnaphthalen-1-yl)-5,6,7,8-tetrahydro-1,7-naphthyridin-4-yl)piperazin-1-yl)prop-2-en-1-one] | 5350 |
| C=CC(=O)N1CCN(c2cc(C(=O)NCCN3CCCC3)nc3c2CCN(c2cccc4ccccc24)C3)CC1 [Compound 1, 4-(4-acryloylpiperazin-1-yl)-7-(naphthalen-1-yl)-N-(2-(pyrrolidin-1-yl)ethyl)-5,6,7,8-tetrahydro-1,7-naphthyridine-2-carboxamide] | 3920 |
| C=CC(=O)N1CCN(c2cc(C(=O)N3CCCCC3CN(C)C)nc3c2CCN(c2cccc4cccc(C)c24)C3)CC1 (racemic) [Compound 47, rac-1-(4-(2-(2-((dimethylamino)methyl)piperidine-1-carbonyl)-7-(8-methylnaphthalen-1-yl)-5,6,7,8-tetrahydro-1,7-naphthyridin-4-yl)piperazin-1-yl)prop-2-en-1-one] | 7750 |
| C=CC(=O)N1CCN(c2cc(C(=O)NCC(C)N(C)C)nc3c2CCN(c2cccc4ccccc24)C3)CC1 (racemic) [Compound 5, rac-4-(4-acryloylpiperazin-1-yl)-N-(2-(dimethylamino)propyl)-7-(naphthalen-1-yl)-5,6,7,8-tetrahydro-1,7-naphthyridine-2-carboxamide] | 6020 |
| C=CC(=O)N1CCN(c2cc(C(=O)NCC3CCCN(C)C3)nc3c2CCN(c2cccc4cccc(C)c24)C3)CC1 (racemic) [Compound 56, rac-4-(4-acryloylpiperazin-1-yl)-7-(8-methylnaphthalen-1-yl)-N-((1-methylpiperidin-3-yl)methyl)-5,6,7,8-tetrahydro-1,7-naphthyridine-2-carboxamide] | 3650 |
| C=CC(=O)N1CCN(c2cc(C(=O)NCCC3CCCN3C)nc3c2CCN(c2cccc4cccc(C)c24)C3)CC1 (racemic) [Compound 57, rac-4-(4-acryloylpiperazin-1-yl)-7-(8-methylnaphthalen-1-yl)-N-(2-(1-methylpyrrolidin-2-yl)ethyl)-5,6,7,8-tetrahydro-1,7-naphthyridine-2-carboxamide] | 3410 |
| C=CC(=O)N1CCN(c2cc(C(=O)N3CCC[C@H]3CN3CCCC3)nc3c2CCN(c2cccc4cccc(C)c24)C3)CC1 [Compound 41, (S)-1-(4-(7-(8-methylnaphthalen-1-yl)-2-(2-(pyrrolidin-1-ylmethyl)pyrrolidine-1-carbonyl)-5,6,7,8-tetrahydro-1,7-naphthyridin-4-yl)piperazin-1-yl)prop-2-en-1-one] | 9590 |
| C=CC(=O)N1CCN(c2cc(C(=O)NC(CN(C)C)C(C)C)nc3c2CCN(c2cccc4cccc(C)c24)C3)CC1 (racemic) [Compound 18, rac-4-(4-acryloylpiperazin-1-yl)-N-(1-(dimethylamino)-3-methylbutan-2-yl)-7-(8-methylnaphthalen-1-yl)-5,6,7,8-tetrahydro-1,7-naphthyridine-2-carboxamide] | 145 |
